In the CheMixHub viscosity set:
Values joined by “and” are separate entries in the source; they are usually repeats but may differ in a detail not shown here. Identical values can stand only once.

What was measured:
[1] = xn = mol fraction of the nth substance listed

C=CC(=O)OCC
viscosity
Settings | 293.15 K | 298.15 K | 303.15 K | 308.15 K | 313.15 K | 318.15 K
100 kPa | 0.5685 mPa·s | 0.533 mPa·s | 0.5 mPa·s | 0.4643 mPa·s | 0.423 mPa·s | 0.3813 mPa·s
101 kPa | 0.5685 mPa·s and 0.573 mPa·s | – | 0.5 mPa·s and 0.504 mPa·s and 0.502 mPa·s | – | 0.423 mPa·s and 0.443 mPa·s and 0.42 mPa·s | 0.3813 mPa·s and 0.421 mPa·s

CCCCn1cc[n+](C)c1.F[P-](F)(F)(F)(F)F
viscosity
Settings | 293.15 K | 293.2 K | 298.15 K | 303.15 K | 308.15 K | 308.19 K | 313.15 K | 318.15 K | 323.15 K
100 kPa | 336.9 mPa·s | 342.7 mPa·s | 256.7 mPa·s | 197.6 mPa·s | 148.3 mPa·s | 144 mPa·s | 112 mPa·s | 87.66 mPa·s | 70.97 mPa·s
101 kPa | 378 mPa·s and 249.5 mPa·s and 265.2 mPa·s | – | – | 187.6 mPa·s and 136 mPa·s and 165.7 mPa·s | 101.5 mPa·s and 133.9 mPa·s | – | 129.7 mPa·s and 79.01 mPa·s and 110.8 mPa·s | 93.5 mPa·s and 62.4 mPa·s and 95.75 mPa·s | 88.51 mPa·s and 47.7 mPa·s

COC(C)(C)C
viscosity
Settings | 293.15 K | 298.15 K | 303.15 K | 308.15 K | 313.15 K | 318.15 K | 323.15 K
100 kPa | 0.345 mPa·s | 0.32 mPa·s | 0.297 mPa·s | 0.275 mPa·s | 0.252 mPa·s | 0.231 mPa·s | 0.206 mPa·s
101 kPa | 0.387 mPa·s and 0.371 mPa·s | 0.374 mPa·s and 0.3558 mPa·s and 0.348 mPa·s | – | 0.341 mPa·s and 0.3245 mPa·s | 0.321 mPa·s | 0.297 mPa·s | 0.276 mPa·s
101.33 kPa | 0.3861 mPa·s and 0.3861 mPa·s | 0.3687 mPa·s and 0.3687 mPa·s and 0.3353 mPa·s | 0.3163 mPa·s | – | 0.2876 mPa·s | – | –

COCCOCCOCCOCCOC
viscosity
Settings | 293.15 K | 298 K | 298.15 K | 303.15 K | 308.15 K | 318.15 K | 323.15 K
101 kPa | 3.795 mPa·s | 3.295 mPa·s | – | 2.955 mPa·s | 2.646 mPa·s and 2.643 mPa·s and 2.524 mPa·s | 2.168 mPa·s and 2.11 mPa·s | 1.975 mPa·s
101.33 kPa | – | – | 3.394 mPa·s | – | – | – | –

Clc1ccccc1
Settings | viscosity
293.15 K, 101 kPa | 0.768 mPa·s and 0.793 mPa·s and 0.8062 mPa·s
293.15 K, 101.33 kPa | 0.806 mPa·s and 0.8522 mPa·s
293.45 K, 101.33 kPa | 0.8265 mPa·s
298.15 K, 101.3 kPa | 0.773 mPa·s
298.15 K, 101.33 kPa | 0.8131 mPa·s and 0.755 mPa·s
299 K, 101 kPa | 1.182 mPa·s
303.15 K, 101.3 kPa | 0.725 mPa·s
303.55 K, 101.33 kPa | 0.743 mPa·s
308.15 K, 101.3 kPa | 0.666 mPa·s and 0.683 mPa·s
312.75 K, 101.33 kPa | 0.6695 mPa·s
313.15 K, 101.33 kPa | 0.6469 mPa·s and 0.639 mPa·s
314.25 K, 101.33 kPa | 0.643 mPa·s
318.15 K, 101 kPa | 0.5629 mPa·s and 0.5924 mPa·s and 0.601 mPa·s
318.15 K, 101.3 kPa | 0.615 mPa·s
318.15 K, 101.33 kPa | 0.607 mPa·s
322.35 K, 101.33 kPa | 0.6069 mPa·s
323.15 K, 101 kPa | 0.5724 mPa·s and 0.5701 mPa·s and 0.566 mPa·s
323.15 K, 101.33 kPa | 0.5724 mPa·s

OC1CCCC1
100 kPa
Settings | viscosity
293.15 K | 12.9 mPa·s
298.15 K | 10.41 mPa·s
303.15 K | 8.2 mPa·s and 8.088 mPa·s
308.15 K | 6.85 mPa·s and 6.528 mPa·s
318.15 K | 4.742 mPa·s
318.16 K | 4.87 mPa·s

CCCCn1cc[n+](C)c1.F[P-](F)(F)(F)(F)F + O
[1], 298.15 K, 101 kPa
Settings | viscosity [mPa·s]
x2 = 0.0518 | 198
x2 = 0.2146 | 92.5

C[NH+](C)CCO.O=C([O-])CCCC(=O)O + O
[1], 101 kPa, x2 = 0.89
Settings | viscosity [mPa·s]
298 K | 19.3
313 K | 11.8

[Cl-].[Cs+] + O
[1], 310.15 K, 101 kPa
Settings | viscosity [mPa·s]
x1 = 0.000182 | 0.6996
x1 = 0.000907 | 0.7002
x1 = 0.001823 | 0.7061
x1 = 0.002695 | 0.7089
x1 = 0.003679 | 0.7129
x1 = 0.005197 | 0.719
x1 = 0.005988 | 0.7223

OCCCCCO + O=C1CCCN1
[1], 308.15 K, 101 kPa
Settings | viscosity [mPa·s]
x1 = 0.479 | 21.15
x1 = 0.9392 | 54.65

CC(O)C(=O)O (stereo unspecified) + O=C(O)[C@@H]1CCCN1
Settings | viscosity [mPa·s]
[1], 323.15 K, 100 kPa, x1 = 0.5 | 997.4

C[NH+](C)CCO.O=C([O-])CCCC(=O)O + O=S1(=O)CCCC1
[1], 101 kPa, x1 = 0.27
Settings | viscosity [mPa·s]
303.15 K | 132.4
313.15 K | 81.7
323.15 K | 54.1

OC1CCCC1 + OCCO
viscosity [mPa·s], [1], 100 kPa
Settings | 293.15 K | 298.15 K | 303.15 K | 308.15 K | 313.15 K | 318.15 K
x1 = 0.0096 | 20.05 | 16.39 | 13.54 | 11.2 | 9.449 | 7.776
x1 = 0.0395 | 19.37 | 15.85 | 13.05 | 10.76 | 9.1 | 7.468
x1 = 0.0579 | 19.05 | 15.56 | 12.79 | 10.56 | 8.919 | 7.326
x1 = 0.0879 | 18.56 | 15.14 | 12.41 | 10.23 | 8.646 | 7.096
x1 = 0.1 | 18.37 | 14.97 | 12.3 | 10.1 | 8.562 | 7.014
x1 = 0.1962 | 17.2 | 13.96 | 11.39 | 9.382 | 7.926 | 6.505
x1 = 0.305 | 16.2 | 13.09 | 10.65 | 8.716 | 7.366 | 6.078
x1 = 0.3969 | 15.4 | 12.54 | 10.2 | 8.282 | 7.016 | 5.819
x1 = 0.4993 | 14.8 | 12.02 | 9.751 | 7.927 | 6.692 | 5.617
x1 = 0.5877 | 14.3 | 11.69 | 9.42 | 7.677 | 6.437 | 5.439
x1 = 0.6993 | 13.9 | 11.33 | 8.99 | 7.319 | 6.14 | 5.219
x1 = 0.797 | 13.56 | 11.01 | 8.69 | 7.01 | 5.861 | 5.05
x1 = 0.8977 | 13.15 | 10.62 | 8.345 | 6.737 | 5.625 | 4.89

Clc1ccccc1 + OCCOCCOCCO
viscosity [mPa·s], [1], 101 kPa
Settings | 298.15 K | 308.15 K
x2 = 0.0473 | 0.941 | 0.808
x2 = 0.149 | 1.491 | 1.172
x2 = 0.2493 | 2.307 | 1.682
x2 = 0.3495 | 3.504 | 2.4
x2 = 0.439 | 5.014 | 3.283
x2 = 0.4734 | 5.733 | 3.699
x2 = 0.5509 | 7.695 | 4.829
x2 = 0.6512 | 11.09 | 6.787
x2 = 0.7493 | 15.58 | 9.422
x2 = 0.8483 | 21.58 | 13.05
x2 = 0.9428 | 28.99 | 17.74

C=CC(=O)OCC + c1ccccc1
viscosity [mPa·s], [1], 101 kPa
Settings | x2 = 0.1283 | x2 = 0.2137 | x2 = 0.3255 | x2 = 0.4115 | x2 = 0.5361 | x2 = 0.6109 | x2 = 0.7033 | x2 = 0.8074 | x2 = 0.9025
298.15 K | 0.531 | 0.533 | 0.537 | 0.541 | 0.55 | 0.558 | 0.568 | 0.579 | 0.591
303.15 K | 0.499 | 0.5 | 0.501 | 0.502 | 0.509 | 0.516 | 0.524 | 0.535 | 0.548
308.15 K | 0.461 | 0.46 | 0.461 | 0.462 | 0.466 | 0.472 | 0.481 | 0.495 | 0.508
313.15 K | 0.412 | 0.41 | 0.411 | 0.412 | 0.415 | 0.42 | 0.431 | 0.444 | 0.458
